# According to patent publication EP0638125B1, “AC[…] A PRODUCER OF RAPAMYCIN” (PFIZER INC., priority 1992, dated 1993):
# Columns and labels:
# Format in all cases: cell-based
# [1] = cytotoxicity, standard procedure (Mosmann)
# Description: (§1) The IC₅₀ values (µg/ml) of MLR and cytotoxicity for rapamycin were 7 x 10⁻³ and >3.0, respectively when tested by standard procedures for MLR (D. P. Dubey et al., Manual of Clinical Laboratory Immunology, 3rd Ed., pp. 847-858, 1986) and for cytotoxicity (T. Mosmann, J., J. Immunol. Methods, 65, 55-63, 1983).
# [2] = test system: mixed lymphocyte reaction (MLR); assay: mixed lymphocyte reaction (MLR), standard procedure (Dubey et al.); details: read-out: IC₅₀ values of MLR
# Description: as §1
# Candida albicans = assay: antifungal activity, agar plate dilution method with paper disk; details: 40 µg/disk, 8 mm diameter paper disk, agar medium for neomycin assay (Difco)
# Experimental: Antifungal activity was determined by an agar plate dilution method using a fungal culture, Candida albicans. The diameter of inhibition zone of rapamycin was 25 mm when tested at 40 µg/disk (8 mm diameter paper disk, Advantic) on an commercially available agar medium for neomycin assay (Difco).
compound,measurement,setting,value
CO[C@H]1C[C@@H]2CC[C@@H](C)[C@@](O)(O2)C(=O)C(=O)N2CCCC[C@H]2C(=O)O[C@H]([C@H](C)C[C@@H]2CC[C@@H](O)[C@H](OC)C2)CC(=O)[C@H](C)/C=C(\C)[C@@H](O)[C@@H](OC)C(=O)[C@H](C)C[C@H](C)/C=C/C=C/C=C/1C [rapamycin],CC50,[1],> 3000 ng/mL
same,IC50,[2],7 ng/mL
same,zone of inhibition at 40 µg/disc,Candida albicans,25 mm
